Here are results for 1 compound from patent publication US5929082A, “Potassium ion channel blockers” (priority 1995, dated 1999).

Details of data set [1]: species or system Sprague-Dawley rats. To be noted: rat, in vivo, po. Here is the method:
Representative compounds were evaluated for their effect on glucose tolerance following oral administration at doses ranging from 0.005 mg/kg to 100 mg/kg. Normal male Sprague-Dawley rats were dosed with a test compound daily for five days, and were fasted overnight prior to days 1 and 5. Control animals were given ether vehicle only, or Glibenclamide (glyburide; N-[4-(β-)(2-methoxy-5-chlorobenzamido)ethyl)benzosulphonyl)-N'-cyclohexylurea]; 2 mg/kg/day). Blood was collected on day zero and on days one and five at 0, 0.5, 1, 1.5 and 2 hours after drug administration. Blood glucose concentrations were then measured in duplicate using standard glucose oxidase analysis. The samples were assayed using a Hitachi U-200 Spectrophotometer at a wavelength of 505 nm. The weight gain of each rat was also measured over the five day period, and all results were compared to both the negative control group (dosing with vehicle only) and the positive control group (dosing with Glibenclamide). […] Doses of drugs administered were minimised so as to reduce differences in weight gain whilst retaining hypoglycaemic activity. […]
Each point represents the effect of each dose on the rats glucose tolerance or ability to gain weight, expressed as a percentage of the control (normal) response (where control=100% response). […]

Data set [2] is described as follows: Kinetic/metabolite studies: HPLC analysis of plasma after oral administration. The format is in vivo, Sprague-Dawley rats. The settings on record: after oral administration, HPLC. Here is the method:
Plasma samples were collected in order to test the correlation of plasma drug (or metabolite) concentration with hypoglycaemic activity, and to determine whether compounds of the invention were converted in vivo into active metabolites. The plasma levels of test compounds or metabolites also give an indication of rate of metabolism and kinetics of drug action.
Blood samples collected from rats treated as above and collected at the same intervals were analysed using an ICI LC1150 HPLC system and a LC1210 UV detector at a wavelength of 227 nm. The HPLC system used a Merck LiChroCART 125-4 LiChrosphere 100 RP-18 HPLC and LiChrosphere 100 RP-18 guard columns. The mobile phase consisted of 70% acetonitrile and a 30% aqueous sodium phosphate buffer at pH 7.45 and was prepared using standard HPLC grade reagents and distilled water. To improve the resolution of peaks and separation of the compounds a gradient method was established where changes in the concentration of the required buffers and solvents, and the time at which these changes occur is outlined in Table 7. The volumes are expressed as percentages of the total flow rate, with the flow rate remaining constant at […].
The data were acquired using the WinChrom Data Management system and were calibrated using stock solutions of the test compounds and Glibenclamide as an internal standard dissolved in 100% methanol
Plasma (250 μL) collected from the rats were extracted into methanol (700 μL) and 50 μL of Glibenclamide (25 μg/ml). The mixture was then agitated with a vortex mixer for 15 sec and centrifuged for 10 min. The clear supernatant was then carefully aspirated for HPLC analysis.
The results are outlined in Table 8 and show retention times (minutes) for the compounds and their metabolites as analysed by HPLC after oral administration in Sprague-Dawley rats. […] Glibenclamide is shown for comparison only, none of the metabolites observed with the test compounds correspond to metabolites of Glibenclamide.

Data set [3] has as its system rat heart. To be noted: 1 μM, rat heart stimulated at 5 Hz; Kantor et al, 1987; cited from earlier work.
The nature of data set [4]: Hypoglycaemic activity: change in blood glucose after oral gavage. The format is in vivo, Sprague Dawley rats. To be noted: 1.6 mg/kg oral gavage, normal fed male rats. Here is the method: The biological activity of representative compounds of the invention was evaluated by means of several different tests. The activity of compounds of this invention as hypoglycaemic agents was measured and compared with the activity of the known compound of Example 1, using methods described in the literature. Thus normal, fed male Sprague Dawley rats weighing between 275 and 375 g were studied for changes in blood sugar levels and alterations to mean arterial blood pressure following administration of representative compounds of the invention suspended in a 5% solution of gum acacia by oral gavage at a dose of 1.6 mg/kg. The concentration of each compound was 4 mg in 10 ml, so that each rat received 1.1-1.5 ml to obtain the desired dose on a body weight basis. The blood sugar levels were recorded for each rat immediately prior to administration, and at 1, 2, and 3 hr following administration of the test compounds. Blood glucose levels were determined on blood samples taken from the tail, and analysed on an Ames blood glucometer, model 5626, and Ames, 2627 blood glucose strips (number 2). […] It is apparent that generally the heterocyclic sulphonylthioureas have greater activity than the sulphonylureas. Without wishing to be bound by any proposed mechanism for the observed effect, we believe that this may be associated with differences in lipid permeability.

For data set [5], the system named is MCF-7 mammary carcinoma cells. Put plainly: Thymidine uptake ([methyl-3H] thymidine incorporation into DNA). The format is cell-based, human. To be noted: 100 μM (printed 100 μH / 100 mM), compared to control group; Glibenclamide n=3, Compound 1-24 n=4. Here is the method:
Incorporation of [methyl-3H] thymidine into DNA was measured as described by Murphy and Lazarus (1983), using MCF-7 mammary carcinoma cells treated with compound 1-24 (100 μH) and a control group. The growth medium from cells cultured as described in Example 24 was aspirated from the wells, and 1 mL of fresh growth medium containing 1 μCi [3H]-thymidine (Amersham) was added to each well After 4 hours incubation, the medium was aspirated and the monolayers were washed three times with ice cold phosphate buffered saline (ICN). This was followed by three washes with 10% (v/v) ice cold trichloroacetic acid, each of 5 minutes duration. After another three washes with absolute ethanol at room temperature of 5 minutes duration, the monolayer was dried at room temperature for 10 minutes. The monolayer was […] after incubation for 12 hours with 0.5 N NaOH and 1% Triton-X 100 (Sigma). An aliquot of the cell lysate was added to 10 ml of Ultima Gold (Packard) and counted using a liquid scintillation counter (Packard model 19006A).

Data set [6] deals with MCF-7 human mammary carcinoma cells. To be noted: Woodfork et al, 1995, cited from earlier work.
Data set [7] shares this test system. The settings on record: concentration-dependent; Woodfork et al, 1995; read-out: IC50, inhibition of cell proliferation; cited from earlier work.

`COc1ccc(Cl)cc1C(=O)NCCc1ccc(S(=O)(=O)NC(=O)NC2CCCCC2)cc1` [Glibenclamide, reference compound]: in data set [1], the “weight gain over a five day period” value is recorded as “decreased their observed weight gain”. The Compound in plasma result in data set [2] was “no”. Besides, in data set [3], the “effect on ischaemia-induced ventricular arrhythmias / K+ loss” value is recorded as “prevent or reduce ischaemia-induced ventricular arrhythmias”. For the same compound, the “Change in Blood Glucose, 0 hours” value in data set [4] (0 hours) came to 0.0 mmol/L. For the same compound, in data set [4] (1 hour), the “Change in Blood Glucose, 1 Hour” value came out at 0.6 mmol/L. In addition, the “Change in Blood Glucose, 2 Hours” value in data set [4] (2 hours) is reported as -2.1 mmol/L. Besides, the “Change in Blood Glucose, 3 Hours” value in data set [4] (3 hours) is reported as -2.4 mmol/L. Further, in data set [5], the “inhibition of thymidine uptake” value is “significant inhibition”. Further, the “accumulation at the G0/G1 phase in cell cycle distribution” value in data set [6] is “statistically significant accumulation at the G0/G1 phase”. In data set [6] (inhibition of KATP channels), the cell-cycle arrest entry is reported as “reversible cell-cycle arrest”. Moreover, the IC50 in data set [7] is 50 µM.
